In patent US9833497B2, “Human originated EGF domain proteins and use of the same” (CHENGDU SOURCEBIO LIMITED-LIABILITY COMPANY, priority 2013, dated 2017):

Experiments:
Assay type in all cases: cell-based
Proteus vulgaris = assay: MIC against Gram-negative bacteria: Proteus vulgaris
In short: (§1)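 Growth inhibition by human EGF domain proteins was scored in LB liquid culture seeded at 5×10^5 CFU/mL. Protein was applied as a two-fold dilution series in triplicate, with shaking incubation at 37° C; MIC is the lowest concentration giving no growth.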

Klebsiella pneumonia = assay: MIC against Gram-negative bacteria: Klebsiella pneumonia
In short: as §1

Pseudomonas aeruginosa = assay: MIC against Gram-negative bacteria: Pseudomonas aeruginosa
In short: as §1

Enterobacter cloacae = assay: MIC against Gram-negative bacteria: Enterobacter cloacae
In short: as §1

E. coli BL21 = assay: MIC against Gram-negative bacteria: E. coli BL21
In short: as §1

E. coli DH5α = assay: Antibacterial activity: MIC and growth curve against E. coli DH5α in 96-well plate; conditions: minimal inhibitory concentration against E. coli DH5α; 96-well plate, 5×10^5 CFU/mL, 37° C., judged after 8 h
In short: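 Log-phase bacteria (OD600 ~0.5) resuspended in LB at 5×10^5 CFU/mL, exposed to recombinant protein at 50, 25, 12.5 μg/mL final in triplicate, 37 °C shaking at 175 rpm. OD600 read every 30 min; MIC is lowest concentration showing no growth.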

Moraxella catarrhalis = assay: MIC against Gram-negative bacteria: Moraxella catarrhalis
In short: as §1

Aeromonas hydrophila = assay: MIC against Gram-negative bacteria: Aeromonas hydrophila
In short: as §1

Citrobacter diversus = assay: MIC against Gram-negative bacteria: Citrobacter diversus
In short: as §1

Serratia marcescens = assay: MIC against Gram-negative bacteria: Serratia marcescens
In short: as §1

Proteus mirabilis = assay: MIC against Gram-negative bacteria: Proteus mirabilis
In short: as §1

[1] = 96-well plate, 5×10^5 CFU/mL, 37° C., 10 h
[2] = P. vulgaris, 10 h cultivation at 37° C., 5×10^5 CFU/mL
[3] = K. pneumonia, 10 h cultivation at 37° C., 5×10^5 CFU/mL
[4] = P. aeruginosa, 10 h cultivation at 37° C., 5×10^5 CFU/mL
[5] = E. cloacae, 10 h cultivation at 37° C., 5×10^5 CFU/mL
[6] = E. coli BL21, 10 h cultivation at 37° C., 5×10^5 CFU/mL
[7] = M. catarrhalis, 10 h cultivation at 37° C., 5×10^5 CFU/mL
[8] = A. hydrophila, 10 h cultivation at 37° C., 5×10^5 CFU/mL
[9] = C. diversus, 10 h cultivation at 37° C., 5×10^5 CFU/mL
[10] = S. marcescens, 10 h cultivation at 37° C., 5×10^5 CFU/mL
[11] = P. mirabilis, 10 h cultivation at 37° C., 5×10^5 CFU/mL
[12] = 10 h cultivation at 37° C., 5×10^5 CFU/mL, two-fold serial dilution

For “PRT1353 (SDMSCPNDCHQHGRCVNGMCVCDDGYTGEDCR; listed as Homo sapiens)”, the “MIC against P. vulgaris” value (Proteus vulgaris; Proteus vulgaris, 5×10^5 CFU/mL, 10 h cultivation at 37° C.) was 25 µg/mL, the “MIC against K. pneumonia” value (Klebsiella pneumonia; Klebsiella pneumonia, 5×10^5 CFU/mL, 10 h cultivation at 37° C.) was 25 µg/mL and the “MIC against P. aeruginosa” value (Pseudomonas aeruginosa; Pseudomonas aeruginosa, 5×10^5 CFU/mL, 10 h cultivation at 37° C.) was 50 µg/mL. For the same substance, the “MIC against E. cloacae” value (Enterobacter cloacae; Enterobacter cloacae, 5×10^5 CFU/mL, 10 h cultivation at 37° C.) was 12.5 µg/mL, the “MIC against E. coli BL21” value (E. coli BL21; E. coli BL21, 5×10^5 CFU/mL, 10 h cultivation at 37° C.) was 25 µg/mL and the MIC (E. coli DH5α) was 12.5 µg/mL. For the same substance, the “MIC against M. catarrhalis” value (Moraxella catarrhalis; Moraxella catarrhalis, 5×10^5 CFU/mL, 10 h cultivation at 37° C.) was 25 µg/mL, the “MIC against A. hydrophila” value (Aeromonas hydrophila; Aeromonas hydrophila, 5×10^5 CFU/mL, 10 h cultivation at 37° C.) was 25 µg/mL and the “MIC against C. diversus” value (Citrobacter diversus; Citrobacter diversus, 5×10^5 CFU/mL, 10 h cultivation at 37° C.) was 50 µg/mL. The “MIC against S. marcescens” value (Serratia marcescens; Serratia marcescens, 5×10^5 CFU/mL, 10 h cultivation at 37° C.) was 50 µg/mL and the “MIC against P. mirabilis” value (Proteus mirabilis; Proteus mirabilis, 5×10^5 CFU/mL, 10 h cultivation at 37° C.) was 12.5 µg/mL.
In the case of “PRT668 (DINECRHPGTCPDGRCVNSPGSYTCLACEEGYRGQSGSCV; listed as Homo sapiens)”, the “MIC P. vulgaris” value (Proteus vulgaris; [1]) is reported as 50 µg/mL, the “MIC K. pneumonia” value (Klebsiella pneumonia; [1]) is reported as 50 µg/mL and the “MIC P. aeruginosa” value (Pseudomonas aeruginosa; [1]) is reported as 12.5 µg/mL. The “MIC E. cloacae” value (Enterobacter cloacae; [1]) was 12.5 µg/mL, the “MIC E. coli BL21” value (E. coli BL21; [1]) was 50 µg/mL and the MIC (E. coli DH5α) was 12.5 µg/mL. The “MIC M. catarrhalis” value (Moraxella catarrhalis; [1]) was 25 µg/mL, the “MIC A. hydrophila” value (Aeromonas hydrophila; [1]) was 50 µg/mL and the “MIC C. diversus” value (Citrobacter diversus; [1]) was 100 µg/mL. For the same substance, the “MIC S. marcescens” value (Serratia marcescens; [1]) was 100 µg/mL and the “MIC P. mirabilis” value (Proteus mirabilis; [1]) was 25 µg/mL.
For “PRT264 (SGQCLCRSGFAGTACELCAPGAFGPHCQAC; listed as Homo sapiens)”, the “MIC (μg/mL) P. vulgaris” value (Proteus vulgaris; [2]) was 25 µg/mL, the “MIC (μg/mL) K. pneumonia” value (Klebsiella pneumonia; [3]) was 50 µg/mL and the “MIC (μg/mL) P. aeruginosa” value (Pseudomonas aeruginosa; [4]) was 12.5 µg/mL. For the same substance, the “MIC (μg/mL) E. cloacae” value (Enterobacter cloacae; [5]) was 12.5 µg/mL, the “MIC (μg/mL) E. coli BL21” value (E. coli BL21; [6]) was 50 µg/mL and the MIC (E. coli DH5α) was 12.5 µg/mL. For the same substance, the “MIC (μg/mL) M. catarrhalis” value (Moraxella catarrhalis; [7]) was 25 µg/mL, the “MIC (μg/mL) A. hydrophila” value (Aeromonas hydrophila; [8]) was 25 µg/mL and the “MIC (μg/mL) C. diversus” value (Citrobacter diversus; [9]) was 50 µg/mL. The “MIC (μg/mL) S. marcescens” value (Serratia marcescens; [10]) was 12.5 µg/mL and the “MIC (μg/mL) P. mirabilis” value (Proteus mirabilis; [11]) was 12.5 µg/mL.
For “PRT268 (SFKCRCDSGFALDSEERNCTDIDE; listed as Homo sapiens)”, the “MIC (μg/mL) P. vulgaris” value (Proteus vulgaris; [2]) was 12.5 µg/mL, the “MIC (μg/mL) K. pneumonia” value (Klebsiella pneumonia; [3]) was 25 µg/mL and the “MIC (μg/mL) P. aeruginosa” value (Pseudomonas aeruginosa; [4]) was 12.5 µg/mL. For the same substance, the “MIC (μg/mL) E. cloacae” value (Enterobacter cloacae; [5]) was 50 µg/mL, the “MIC (μg/mL) E. coli BL21” value (E. coli BL21; [6]) was 25 µg/mL and the MIC (E. coli DH5α) was 12.5 µg/mL. For the same substance, the “MIC (μg/mL) M. catarrhalis” value (Moraxella catarrhalis; [7]) was 25 µg/mL, the “MIC (μg/mL) A. hydrophila” value (Aeromonas hydrophila; [8]) was 25 µg/mL and the “MIC (μg/mL) C. diversus” value (Citrobacter diversus; [9]) was 12.5 µg/mL. The “MIC (μg/mL) S. marcescens” value (Serratia marcescens; [10]) was 12.5 µg/mL and the “MIC (μg/mL) P. mirabilis” value (Proteus mirabilis; [11]) was 50 µg/mL.
In the case of “PRT1153 (TVSTCDPEHDPPHHCSRGATCISLPHGYTCFCPLGTTGIYCE; listed as Homo sapiens)”, the “MIC P. vulgaris” value (Proteus vulgaris; [12]) is reported as 50 µg/mL, the “MIC K. pneumonia” value (Klebsiella pneumonia; [12]) is reported as 50 µg/mL and the “MIC P. aeruginosa” value (Pseudomonas aeruginosa; [12]) is reported as 12.5 µg/mL. For the same substance, the “MIC E. cloacae” value (Enterobacter cloacae; [12]) was 12.5 µg/mL, the “MIC E. coli BL21” value (E. coli BL21; [12]) was 50 µg/mL and the MIC (E. coli DH5α) was 12.5 µg/mL. For the same substance, the “MIC M. catarrhalis” value (Moraxella catarrhalis; [12]) was 12.5 µg/mL, the “MIC A. hydrophila” value (Aeromonas hydrophila; [12]) was 50 µg/mL and the “MIC C. diversus” value (Citrobacter diversus; [12]) was 25 µg/mL. For the same substance, the “MIC S. marcescens” value (Serratia marcescens; [12]) was 12.5 µg/mL and the “MIC P. mirabilis” value (Proteus mirabilis; [12]) was 25 µg/mL.
With “PRT902 (DIDDCRPNPCHNGGSCTDGINTAFCDCLPGFRGTFCE; listed as Homo sapiens)” the MIC (Proteus vulgaris; P. vulgaris, 10 h cultivation at 37° C.) was 25 µg/mL, the MIC (Klebsiella pneumonia; K. pneumonia, 10 h cultivation at 37° C.) was 25 µg/mL and the MIC (Pseudomonas aeruginosa; P. aeruginosa, 10 h cultivation at 37° C.) was 12.5 µg/mL. It also gave an MIC (Enterobacter cloacae; E. cloacae, 10 h cultivation at 37° C.) of 50 µg/mL, an MIC (E. coli BL21; E. coli BL21, 10 h cultivation at 37° C.) of 25 µg/mL and an MIC (E. coli DH5α) of 50 µg/mL. The MIC (Moraxella catarrhalis; M. catarrhalis, 10 h cultivation at 37° C.) was 25 µg/mL, the MIC (Aeromonas hydrophila; A. hydrophila, 10 h cultivation at 37° C.) was 12.5 µg/mL and the MIC (Citrobacter diversus; C. diversus, 10 h cultivation at 37° C.) was 50 µg/mL. It also gave an MIC (Serratia marcescens; S. marcescens, 10 h cultivation at 37° C.) of 50 µg/mL and an MIC (Proteus mirabilis; P. mirabilis, 10 h cultivation at 37° C.) of 12.5 µg/mL.
For “PRT1085 (HARKCNETAKSYCVNGGVCYYIEGINQLSCKCPNGFFGQRCL; listed as Homo sapiens)”, the “MIC P. vulgaris” value (Proteus vulgaris; [12]) was 50 µg/mL, the “MIC K. pneumonia” value (Klebsiella pneumonia; [12]) was 50 µg/mL and the “MIC P. aeruginosa” value (Pseudomonas aeruginosa; [12]) was 12.5 µg/mL. For the same substance, the “MIC E. cloacae” value (Enterobacter cloacae; [12]) was 12.5 µg/mL, the “MIC E. coli BL21” value (E. coli BL21; [12]) was 12.5 µg/mL and the MIC (E. coli DH5α) was 25 µg/mL. For the same substance, the “MIC M. catarrhalis” value (Moraxella catarrhalis; [12]) was 50 µg/mL, the “MIC A. hydrophila” value (Aeromonas hydrophila; [12]) was 50 µg/mL and the “MIC C. diversus” value (Citrobacter diversus; [12]) was 12.5 µg/mL. The “MIC S. marcescens” value (Serratia marcescens; [12]) was 25 µg/mL and the “MIC P. mirabilis” value (Proteus mirabilis; [12]) was 12.5 µg/mL.
